The source of these data is US20240390340A1 (INCYTE CORPORATION, priority 2023, published 2024).

The test system of the assay is KRAS. The assay is described as follows: KRAS inhibition, assay not specified (at least one assay described herein). The note with it: Peak 1 versus Peak 2 of prep. LCMS; assay not stated.
For `COc1cc(O[C@H]2C[C@H](c3cc4c([C@@H](C)O)nc5c(F)c(-c6cccc(Cl)c6Cl)c(CCC#N)cc5c4n3[C@H]3[C@H]4CN[C@@H]3C4)N(C(=O)C3CC3)[C@@H]2C)c(F)cn1` (single isomer, unassigned) [Example 51, Diastereomer 1 (Peak 1)], the “potency of the separated diastereoisomer (atropisomer) in words” value (“potency of the separated diastereoisomer” for short) was “potent”.

With `COc1cc(O[C@H]2C[C@H](c3cc4c([C@@H](C)O)nc5c(F)c(-c6cccc(Cl)c6Cl)c(CCC#N)cc5c4n3[C@H]3[C@H]4CN[C@@H]3C4)N(C(=O)C3(C)CC3)[C@@H]2C)c(F)cn1` (single isomer, unassigned) [Example 52, Diastereomer 1 (Peak 1)], the “potency of the separated diastereoisomer” value is given as “potent”.

In the case of `COc1nccc(O[C@H]2C[C@H](c3cc4c([C@@H](C)O)nc5c(F)c(-c6cccc(Cl)c6Cl)c(CCC#N)cc5c4n3[C@H]3[C@H]4CN[C@@H]3C4)N(C(=O)C3CC3)C2)c1F` (single isomer, unassigned) [Example 53, Diastereomer 1 (Peak 1)], the “potency of the separated diastereoisomer” value is “potent”.

Turning to `C[C@@H](O)c1nc2c(F)c(-c3cccc(Cl)c3Cl)c(CCC#N)cc2c2c1cc([C@H]1C[C@H](Oc3nccs3)CN1C(=O)C1CC1)n2[C@H]1[C@H]2CN[C@@H]1C2` (single isomer, unassigned) [Example 54, Diastereomer 1 (Peak 1)], the “potency of the separated diastereoisomer” value is “potent”.

Regarding `Cc1cc(F)cc(O[C@H]2C[C@H](c3cc4c([C@@H](C)O)nc5c(F)c(-c6cccc(Cl)c6Cl)c(CCC#N)cc5c4n3[C@H]3[C@H]4CN[C@@H]3C4)N(C(=O)C3CC3)C2)n1` (single isomer, unassigned) [Example 62, Diastereomer 1 (Peak 1)], the “potency of the separated diastereoisomer” value is listed as “potent”.

For the molecule `C[C@@H]1[C@@H](Oc2cc(F)ccn2)C[C@H](c2cc3c([C@@H](C)O)nc4c(F)c(-c5cccc(Cl)c5Cl)c(CCC#N)cc4c3n2[C@H]2[C@H]3CN[C@@H]2C3)N1C(=O)C1CC1` (single isomer, unassigned) [Example 63, Diastereomer 1 (Peak 1)], the “potency of the separated diastereoisomer” value is recorded as “potent”.

In the case of `C[C@@H]1[C@@H](Oc2c(F)ccnc2Cl)C[C@H](c2cc3c([C@@H](C)O)nc4c(F)c(-c5cccc(Cl)c5Cl)c(CCC#N)cc4c3n2[C@H]2[C@H]3CN[C@@H]2C3)N1C(=O)C1CC1` (single isomer, unassigned) [Example 64, Diastereomer 1 (Peak 1)], the “potency of the separated diastereoisomer” value is recorded as “potent”.

In the case of `COc1ccc(O[C@H]2C[C@H](c3cc4c([C@@H](C)O)nc5c(F)c(-c6cccc(Cl)c6Cl)c(CCC#N)cc5c4n3[C@H]3[C@H]4CN[C@@H]3C4)N(C(=O)C3CC3)C2)cn1` (single isomer, unassigned) [Example 76, Diastereomer 1 (Peak 1)], the “potency of the separated diastereoisomer” value is listed as “potent”.

Take `C[C@@H](O)c1nc2c(F)c(-c3cccc(Cl)c3Cl)c(CCC#N)cc2c2c1cc([C@H]1C[C@H](Oc3cc(C4CC4)on3)CN1C(=O)C1CC1)n2[C@H]1[C@H]2CN[C@@H]1C2` (single isomer, unassigned) [Example 77, Diastereomer 1 (Peak 1)]: the “potency of the separated diastereoisomer” value is given as “potent”.

With `Cc1nc2c(F)c(-c3cccc(Cl)c3Cl)c(CCC#N)cc2c2c1cc([C@H]1C[C@H](OC3(C)CCC3)CN1C(=O)C1CC1)n2[C@H]1[C@H]2CN[C@@H]1C2` (single isomer, unassigned) [Example 78, Diastereomer 1 (Peak 1)], the “potency of the separated diastereoisomer” value is “potent”.

Consider `Cc1nc2c(F)c(-c3cccc(Cl)c3Cl)c(CCC#N)cc2c2c1cc([C@H]1C[C@H](OC(F)(F)c3ccccc3)CN1C(=O)C1CC1)n2[C@H]1[C@H]2CN[C@@H]1C2` (single isomer, unassigned) [Example 79, Diastereomer 1 (Peak 1)], for which the “potency of the separated diastereoisomer” value is “potent”.

In the case of `[2H]C([2H])([2H])O[C@H]1CC[C@@H]1O[C@H]1C[C@H](c2cc3c(C)nc4c(F)c(-c5cccc(Cl)c5Cl)c(CCC#N)cc4c3n2[C@H]2[C@H]3CN[C@@H]2C3)N(C(=O)C2CC2)C1` (single isomer, unassigned) [Example 80, Diastereomer 1 (Peak 1)], the “potency of the separated diastereoisomer” value is “potent”.

Consider `Cc1nc2c(F)c(-c3cccc(Cl)c3Cl)c(CCC#N)cc2c2c1cc([C@H]1C[C@](C)(OCc3ccccc3)CN1C(=O)C1CC1)n2[C@H]1[C@H]2CN[C@@H]1C2` (single isomer, unassigned) [Example 81, Diastereomer 1 (Peak 1)], for which the “potency of the separated diastereoisomer” value is listed as “potent”.

For `CC[C@@H]1[C@@H](Oc2cc(OC)ncc2F)C[C@H](c2cc3c([C@@H](C)O)nc4c(F)c(-c5cccc(Cl)c5Cl)c(CCC#N)cc4c3n2[C@H]2[C@H]3CN[C@@H]2C3)N1C(=O)C1CC1` (single isomer, unassigned) [Example 82, Diastereomer 1 (Peak 1)], the “potency of the separated diastereoisomer” value is given as “potent”.
